The source of these data is paper PMC4335020, “Single Oral Dose Pharmacokinetics of Decursin and Decursinol Angelate in Healthy Adult Men and Women” (PLoS ONE, 2015).

Data set [1] can be described thus: Stability of D and DA in fresh human whole blood and plasma. In kind it is in vitro ADME. The note with it: 37°C for 1 h, no detectable generation of DOH and other metabolites (data not shown). As for the experimental part:
To rule out possible artifacts of blood collection, processing and blood-borne esterases, we tested the stability of D and DA in freshly obtained human whole blood and plasma. There was no loss of D and DA in plasma and whole blood after incubation at 37°C for 1 h, with no detectable generation of DOH and other metabolites (data not shown).

Data set [2] in a line: Urinary excretion after single oral dose of Cogni.Q. In kind it is in vivo, human. The note with it: pooled 0-24 h urine; for number of subjects with analyte detected in urine: of 20 subjects. On the procedure: Plasma was prepared by centrifuging the heparinized blood at 1000 g for 15 minutes at room temperature. Urine samples (40mL) were collected within time spans of 0–4, 4–8, 8–12 and 12–24 hours (total volume of urine was recorded). All plasma and urine samples were put on dry ice immediately and then stored at -80°C freezer until analysis.
Urine samples from each subject collected from 0 to 24 hours post-dose were pooled proportional to the volume of urine in each sampling period. Urine sample (200μL) was spiked with 5 μL of prednisolone solution (10 ng/μL, IS), and extracted with 1500 μL of ethyl acetate. The ethyl acetate fraction was recovered and dried using a SpeedVac. The dried residue was reconstituted in 50 μL of methanol for UHPLC-MS/MS analysis and 5 μL of the sample was injected.
Urine samples from each subject were pooled proportional to the amount of urine in each sampling period (hours 0–4, 4–8, 8–12 and 12–24). DA was detected in its original form in the urine of 14 subjects whereas D was only detected in the urine of 3 subjects. The levels of detectable D and DA ranged from 0.06∼1.74 nmol/L. DOH was detected in the urine of all subjects with a mean concentration of 289 nmol/L. These extractable unmodified pyranocoumarin forms accounted for the 24-hour cumulative excretion of less than 1% of the ingested pyranocoumarins. Further work is needed to estimate the extent of additional metabolites (free and conjugated forms) in urine and plasma.

On the set-up of data set [3]: method as in PMID 23364885. The note with it: rat n = 3, oral 33.5 mg/kg D and 21.5 mg/kg DA, cited from earlier work; for Cmax: read-out: C max, nmol/, Mean (SD).
On the set-up of data set [4]: method as in PMID 24026903. Conditions: in vitro; cited from earlier work.
Data set [5] relates to murine colon carcinoma CT-26 cells. Also noted: method as in PMID 21170925. Conditions: daily oral 10 mg/kg for 14 days, 30 minutes prior to CT-26 injection through tail vein; cited from earlier work.
Details of data set [6]: method as in ref 23 = [23]; 23 Zhang J, Li L, Tang S, Zhang Y, Markiewski M, et al. (2013) Subchronic Toxicological Evaluation of Ethanol Extract of Medicinal Herb Angelica gigas Nakai and its Pyranocoumarin Tissue Distribution. Conditions: rodents; cited from earlier work.
Details of data set [7]: method as in ref (9) of IRB protocol. Conditions: ref (9) of IRB protocol; cited from earlier work.
Data set [8] has as its system cultured prostate and breast cancer cells. More on the design: method as in PMID 15705905, PMID 17363485, PMID 17986353. The note with it: up to 100 μM; cited from earlier work.
Data set [9] relates to primary cultures of rat cortical cells. More on the design: method as in PMID 17637179. Conditions: as low as 0.1 μmol/L; cited from earlier work.
In data set [10] the test system is human umbilical vein endothelial (HUVEC) cells. More on the design: method as in PMID 19307054. The note with it: 1 μmol/L; cited from earlier work.

For the compound `CC(C)=CC(=O)O[C@H]1Cc2cc3ccc(=O)oc3cc2OC1(C)C` [D, decursin], the “loss after incubation in plasma and whole blood” value in data set [1] is “no loss”. Also, in data set [2], the “number of subjects with analyte detected in urine” value (“number of subjects” below) amounted to 3 subjects. Moreover, in data set [3], the “AUC0–48h, h nmol/L, Mean (SD)” value was 36.0 (14.3) h nmol/L; the “T max, h, median (range)” value is recorded as 1 (0.5–2) h; the Cmax is 7.3 nM. The “rate of metabolism by human vs mouse and rat liver S9 fraction” value in [4] is listed as “metabolized more slowly by human liver S9 fraction”. For the same compound, in [5], the “formation of tumor nodules in the lungs and lung weight” value is “reduced the formation of tumor nodules in the lungs and decreased lung weight”. Moreover, the tissue/plasma ratios result in data set [6] is recorded as “substantially greater than that of DOH”. Further, the “rate of metabolism by human vs mouse and rat liver microsomes” value in [7] is “metabolized much slower by human”.
Turning to `C/C=C(/C)C(=O)O[C@H]1Cc2cc3ccc(=O)oc3cc2OC1(C)C` [DA, decursinol angelate], the “loss after incubation in plasma and whole blood” value in data set [1] is recorded as “no loss”. Besides, in [2], the “number of subjects” value is recorded as 14 subjects. In addition, in data set [3], the “AUC0–48h, h nmol/L, Mean (SD)” value was 64.3 (8.8) h nmol/L; the “T max, h, median (range)” value is given as 1 (0.5–2) h; the Cmax was 7.3 nM. Further, the “rate of metabolism by human vs mouse and rat liver S9 fraction” value in [4] was “metabolized more slowly by human liver S9 fraction”. For the same compound, the tissue/plasma ratios result in data set [6] is reported as “substantially greater than that of DOH”. Further, the “rate of metabolism by human vs mouse and rat liver microsomes” value in data set [7] is given as “metabolized much slower by human”.
Take `CC1(C)Oc2cc3oc(=O)ccc3cc2C[C@@H]1O` [DOH, decursinol]: in [2], the “number of subjects” value was “all subjects”. The urine mean concentration in data set [2] (all subjects) was determined as 289 nmol/L. Also, in [3], the “AUC0–48h, h nmol/L, Mean (SD)” value is listed as 81272 (6829) h nmol/L; the “T max, h, median (range)” value is listed as 4 (3–8) h; the Cmax is 5640 nM. In addition, the anti-proliferative effect entry in data set [8] is given as “little anti-proliferative effect”. Moreover, the “protective effect on glutamate-injured cells” value in data set [9] is recorded as “strong protective effect”. Besides, in [10], the “VEGF-induced proliferation and capillary-tube formation” value is listed as “significantly inhibited”.
